Measurements: publication PMC2719774 (European journal of pharmaceutics and biopharmaceutics : …, 2009)
“And” between values parts separate entries of the source, which are not always exact repeats. Identical values can stand only once.

Columns and labels:
in vitro = conditions: dog, MDCK-MDR1
CYP2D6 = CYP2D6 (Homo sapiens, UniProt P10635); test: In vitro metabolism screening with recombinant CYP2D6; assay type: in vitro ADME; conditions: 1 h, 37°C
CYP2C18 = target: T1, CYP2C18 (Homo sapiens, UniProt P33260); test: In vitro metabolism screening with recombinant CYP2C18; assay type: in vitro ADME; conditions: 1 h, 37°C
T1 sequence (P33260 26-490): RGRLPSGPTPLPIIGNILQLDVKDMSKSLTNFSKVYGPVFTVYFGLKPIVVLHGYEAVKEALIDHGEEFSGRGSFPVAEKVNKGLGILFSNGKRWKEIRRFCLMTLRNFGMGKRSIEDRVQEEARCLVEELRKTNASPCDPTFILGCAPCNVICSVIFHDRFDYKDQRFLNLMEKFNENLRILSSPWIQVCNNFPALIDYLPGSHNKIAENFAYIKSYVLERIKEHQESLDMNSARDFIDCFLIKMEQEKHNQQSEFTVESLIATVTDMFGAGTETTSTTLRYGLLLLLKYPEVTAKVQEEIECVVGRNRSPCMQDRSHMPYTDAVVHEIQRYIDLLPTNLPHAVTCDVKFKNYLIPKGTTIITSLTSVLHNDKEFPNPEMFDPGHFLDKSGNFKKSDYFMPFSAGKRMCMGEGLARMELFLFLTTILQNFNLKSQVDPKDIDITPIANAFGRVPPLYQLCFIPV

recombinant human P-gp = recombinant human P-gp (Homo sapiens, UniProt P08183); test: P-gp ATPase activity; conditions: for Fold Stimulation of P-gp ATPase activity: relative to non treated
[1] = Single-dose pharmacokinetics and brain distribution in rats; assay type: in vivo, male Sprague Dawley rats; conditions: rat; for t1/2 / half-life: 10 mg/kg i.p.
[2] = tested on: MDCK-MDR1 cell monolayers; conditions: 5 μM, 37°C, PBS; UV-HPLC limit of detection 100 ng/ml
UGT2B7 = target: T2, UGT2B7 (Homo sapiens, UniProt P16662); test: In vitro metabolism screening with UGT2B7 Supersomes; assay type: in vitro ADME; conditions: 37°C
T2 sequence (P16662 24-529): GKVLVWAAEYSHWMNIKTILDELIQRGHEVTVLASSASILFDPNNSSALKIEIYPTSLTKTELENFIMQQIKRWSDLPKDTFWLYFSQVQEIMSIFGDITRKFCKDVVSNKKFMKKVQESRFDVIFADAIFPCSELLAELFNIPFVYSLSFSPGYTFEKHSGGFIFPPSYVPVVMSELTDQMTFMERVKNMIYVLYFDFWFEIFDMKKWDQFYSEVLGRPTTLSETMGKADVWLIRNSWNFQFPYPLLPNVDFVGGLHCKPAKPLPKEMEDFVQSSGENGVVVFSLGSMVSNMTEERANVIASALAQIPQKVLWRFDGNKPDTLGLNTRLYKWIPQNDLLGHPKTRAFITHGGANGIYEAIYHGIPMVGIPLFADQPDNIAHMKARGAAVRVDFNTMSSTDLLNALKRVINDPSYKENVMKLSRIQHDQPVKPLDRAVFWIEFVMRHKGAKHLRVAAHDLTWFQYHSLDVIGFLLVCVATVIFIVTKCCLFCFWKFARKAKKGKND

[3] = rhesus monkeys, plasma, single dose ref 24; cited from earlier work
[4] = PET imaging, female baboons ref 25; cited from earlier work
[5] = humans ref 13; cited from earlier work
CYP2E1 = CYP2E1 (Homo sapiens, UniProt P05181); test: In vitro metabolism screening with recombinant CYP2E1; assay type: in vitro ADME; conditions: 1 h, 37°C
CYP1A1 = target: T3, CYP1A1 (Homo sapiens, UniProt P04798); test: In vitro metabolism screening with recombinant CYP1A1; assay type: in vitro ADME; conditions: 1 h, 37°C
T3 sequence (P04798 1-512): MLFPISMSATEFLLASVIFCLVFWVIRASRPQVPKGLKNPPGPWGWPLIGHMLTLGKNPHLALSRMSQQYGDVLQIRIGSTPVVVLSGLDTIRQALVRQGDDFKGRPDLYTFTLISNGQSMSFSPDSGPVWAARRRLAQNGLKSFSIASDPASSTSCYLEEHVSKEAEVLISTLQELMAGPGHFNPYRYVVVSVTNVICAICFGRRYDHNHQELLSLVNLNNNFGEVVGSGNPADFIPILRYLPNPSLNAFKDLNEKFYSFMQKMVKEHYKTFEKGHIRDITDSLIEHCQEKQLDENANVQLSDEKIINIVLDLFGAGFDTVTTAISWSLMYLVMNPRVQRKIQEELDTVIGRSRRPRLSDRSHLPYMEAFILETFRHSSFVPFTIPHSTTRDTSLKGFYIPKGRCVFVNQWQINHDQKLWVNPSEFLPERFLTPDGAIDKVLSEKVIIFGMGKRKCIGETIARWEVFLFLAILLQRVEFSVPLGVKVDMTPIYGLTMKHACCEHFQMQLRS

P-gp (MDR1) = test: in vitro; conditions: dog, MDCK-MDR1
P-gp = test: in vitro; conditions: dog, MDCK-MDR1
[6] = male, Sprague Dawley, brain, ip, 10 mg/kg
[7] = male, Sprague Dawley, plasma, ip, 10 mg/kg

Sequence of recombinant human P-gp (P08183 whole entry): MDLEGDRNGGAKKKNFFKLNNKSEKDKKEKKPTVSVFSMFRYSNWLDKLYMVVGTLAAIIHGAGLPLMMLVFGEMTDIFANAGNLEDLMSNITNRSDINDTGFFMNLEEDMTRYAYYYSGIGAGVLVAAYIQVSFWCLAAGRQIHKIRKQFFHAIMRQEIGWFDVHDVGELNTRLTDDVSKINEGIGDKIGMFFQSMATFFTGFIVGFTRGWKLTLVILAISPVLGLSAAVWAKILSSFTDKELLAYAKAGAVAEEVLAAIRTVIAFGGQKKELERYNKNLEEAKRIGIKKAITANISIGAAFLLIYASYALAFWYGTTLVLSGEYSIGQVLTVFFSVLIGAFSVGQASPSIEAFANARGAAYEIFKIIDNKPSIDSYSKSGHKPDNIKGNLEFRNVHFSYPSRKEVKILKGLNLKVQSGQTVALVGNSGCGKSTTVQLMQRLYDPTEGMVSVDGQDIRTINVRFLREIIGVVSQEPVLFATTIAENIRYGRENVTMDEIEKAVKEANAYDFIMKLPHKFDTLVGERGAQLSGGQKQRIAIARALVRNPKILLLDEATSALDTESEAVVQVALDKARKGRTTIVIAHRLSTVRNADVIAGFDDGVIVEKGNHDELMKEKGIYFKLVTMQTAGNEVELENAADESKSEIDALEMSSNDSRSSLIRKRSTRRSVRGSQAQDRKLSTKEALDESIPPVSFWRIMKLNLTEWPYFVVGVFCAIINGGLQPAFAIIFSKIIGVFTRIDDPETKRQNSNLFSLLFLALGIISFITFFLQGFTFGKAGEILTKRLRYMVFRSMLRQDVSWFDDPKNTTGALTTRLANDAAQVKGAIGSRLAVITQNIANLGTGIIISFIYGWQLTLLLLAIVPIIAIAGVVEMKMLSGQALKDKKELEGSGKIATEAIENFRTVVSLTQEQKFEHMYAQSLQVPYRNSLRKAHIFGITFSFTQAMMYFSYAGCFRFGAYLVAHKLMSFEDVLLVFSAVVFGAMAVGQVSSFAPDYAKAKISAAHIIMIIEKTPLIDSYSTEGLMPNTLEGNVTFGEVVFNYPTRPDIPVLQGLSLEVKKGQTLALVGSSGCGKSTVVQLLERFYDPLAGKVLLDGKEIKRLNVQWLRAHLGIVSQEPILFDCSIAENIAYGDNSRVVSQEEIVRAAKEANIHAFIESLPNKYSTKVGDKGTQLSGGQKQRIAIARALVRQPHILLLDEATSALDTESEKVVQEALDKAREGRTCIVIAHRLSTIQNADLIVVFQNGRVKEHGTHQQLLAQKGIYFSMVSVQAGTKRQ
Sequence of CYP2D6 (P10635 whole entry): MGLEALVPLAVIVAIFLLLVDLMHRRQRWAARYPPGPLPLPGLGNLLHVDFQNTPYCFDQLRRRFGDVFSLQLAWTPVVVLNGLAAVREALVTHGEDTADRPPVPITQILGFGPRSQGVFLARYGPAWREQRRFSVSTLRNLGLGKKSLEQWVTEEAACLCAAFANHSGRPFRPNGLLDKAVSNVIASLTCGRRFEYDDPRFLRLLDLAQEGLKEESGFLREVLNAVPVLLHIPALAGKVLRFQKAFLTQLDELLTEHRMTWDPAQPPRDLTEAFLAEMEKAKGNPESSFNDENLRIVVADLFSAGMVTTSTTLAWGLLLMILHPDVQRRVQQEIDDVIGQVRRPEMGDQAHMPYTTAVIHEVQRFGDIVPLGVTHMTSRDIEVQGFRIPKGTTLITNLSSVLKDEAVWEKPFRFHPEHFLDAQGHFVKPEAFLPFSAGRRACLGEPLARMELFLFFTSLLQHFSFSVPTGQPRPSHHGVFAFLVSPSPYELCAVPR
Sequence of CYP2E1 (P05181 whole entry): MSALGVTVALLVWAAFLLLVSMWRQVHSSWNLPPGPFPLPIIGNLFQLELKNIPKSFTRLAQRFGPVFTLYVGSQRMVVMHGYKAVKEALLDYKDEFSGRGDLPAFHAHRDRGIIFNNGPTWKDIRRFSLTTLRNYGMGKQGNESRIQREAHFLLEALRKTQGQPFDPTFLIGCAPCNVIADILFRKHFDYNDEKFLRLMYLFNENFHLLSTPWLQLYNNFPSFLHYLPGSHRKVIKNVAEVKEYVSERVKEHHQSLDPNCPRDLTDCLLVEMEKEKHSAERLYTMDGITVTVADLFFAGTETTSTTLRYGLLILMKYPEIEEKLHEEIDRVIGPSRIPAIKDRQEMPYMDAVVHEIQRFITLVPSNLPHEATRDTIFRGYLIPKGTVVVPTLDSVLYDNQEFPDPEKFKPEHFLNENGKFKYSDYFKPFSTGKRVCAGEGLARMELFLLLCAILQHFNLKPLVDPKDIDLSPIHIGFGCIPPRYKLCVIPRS

SMILES: OC[C@@H](O)[C@@H](O)[C@H](O)[C@H](O)CO [Mannitol, mannitol]
- Papp (in vitro): 3.23 ×10⁻⁶ cm/s

SMILES: COC(=O)[C@@H]1C[C@H](OC(C)=O)C(=O)[C@H]2[C@@]1(C)CC[C@H]1C(=O)O[C@H](c3ccoc3)C[C@]21C [Salvinorin A]
- % reduction of initial concentration (CYP2D6; 5 μM): 14.7±0.80% and 14.7(± 0.80) %
- % reduction of initial concentration (CYP2D6; 50 μM): 10(± 1.2) %
- % reduction of initial concentration (CYP2C18; 5 μM): 20.6(±1.00) %
- % reduction of initial concentration (CYP2C18; 50 μM): 6(±1.2) %
- rate of ATP consumption (P-gp ATPase activity) (recombinant human P-gp; 2.5 μM): 50.94 ± 17.87 pmol/μg P-gp/min
- Fold Stimulation of P-gp ATPase activity (recombinant human P-gp; 2.5 μM): 2.39
- rate of ATP consumption (P-gp ATPase activity) (recombinant human P-gp; 5 μM): 47.48 ± 3.36 pmol/μg P-gp/min and 47.78 ± 3.36 ^a pmol/μg P-gp/min
- Fold Stimulation of P-gp ATPase activity (recombinant human P-gp; 5 μM): 2.24
- rate of ATP consumption (P-gp ATPase activity) (recombinant human P-gp; 10 μM): 41.14 ± 5.86 pmol/μg P-gp/min and 41.14 ± 5.86 ^b pmol/μg P-gp/min
- Fold Stimulation of P-gp ATPase activity (recombinant human P-gp; 10 μM): 1.93
- rate of ATP consumption (P-gp ATPase activity) (recombinant human P-gp; 25 μM): 31.08 ± 21.18 pmol/μg P-gp/min
- Fold Stimulation of P-gp ATPase activity (recombinant human P-gp; 25 μM): 1.46
- t1/2 ([1]; brain): 36.1 min
- Kp ([1]; male, Sprague Dawley, brain and plasma, ip, 10 mg/kg): 0.05
- AUC(0-inf) [1, 6]: 20.6 ng·h/mL
- AUC(0-t) [1, 6]: 13 ng·h/mL
- Cmax [1, 6]: 23.9 ng/mL
- Tmax [1, 6]: 10 min
- half-life ([1]; male, Sprague Dawley, brain, ip, 10 mg/kg, t1/2, brain): 36 min
- Tmax ([1]; male, Sprague Dawley, plasma and brain, ip, 10 mg/kg): 10 to 15 min
- AUC(0-inf) [1, 7]: 410 ng·h/mL
- AUC(0-t) [1, 7]: 348 ng·h/mL
- CL/F [1, 7]: 433 mL/min/kg
- Cmax [1, 7]: 345 ng/mL
- Tmax [1, 7]: 15 min
- k el [1, 7]: 0.000153 s⁻¹
- half-life ([1]; male, Sprague Dawley, plasma, ip, 10 mg/kg, t1/2, plasma): 75 min
- k el ([1]; male, Sprague-Dawley, brain, ip, 10 mg/kg): 3.19e-05 s⁻¹
- Vd/F ([1]; male, Sprague-Dawley, plasma, ip, 10 mg/kg): 47.1 L/kg
- t1/2 ([1]; plasma): 75.4 min
- absorptive transport (Papp A→B) [2]: not detected
- % reduction of initial concentration (UGT2B7; 5 μM, two hour incubation): 51(± 4.00) %
- % reduction of initial concentration (UGT2B7; 10 μM, 1 h): 18.1(± 5.20) %
- % reduction of initial concentration (UGT2B7; 50 μM, 1 h): 7(±5.60) %
- elimination half-life [3]: 56.6 ± 24.8 min
- time to peak brain uptake after dosing [4]: 40 s
- duration of hallucinogenic experience [5]: ≤ 15 min
- time to appearance of hallucinogenic experience [5]: less than 1 min
- % reduction of initial concentration (CYP2E1; 5 μM): 22(±0.80) %
- % reduction of initial concentration (CYP2E1; 50 μM): 6.4(±1.6) %
- % reduction of initial concentration (CYP1A1; 5 μM): 31.1±1.20% and 31.1(±1.20) %
- % reduction of initial concentration (CYP1A1; 50 μM): 5.3(±2) %
- Papp B→A at 5 μM (P-gp (MDR1)): 40.7 ×10⁻⁶ cm/s

SMILES: CC(=O)O[C@H]1C(=O)[C@@]2(C)[C@H]([C@H](OC(=O)c3ccccc3)[C@]3(O)C[C@H](OC(=O)[C@H](O)[C@@H](NC(=O)c4ccccc4)c4ccccc4)C(C)=C1C3(C)C)[C@]1(OC(C)=O)CO[C@@H]1C[C@@H]2O [paclitaxel]
- efflux ratio (P-gp): 15.2
